In ChEMBL document CHEMBL5291721, “A preclinical secondary pharmacology resource illuminates target-adverse drug reaction associations of marketed drugs” (Nat Commun, 2023):

Experiments:
Substance-P receptor = Substance-P receptor (Homo sapiens, UniProt P25103)
D(4) dopamine receptor = biological target: T1, D(4) dopamine receptor (Homo sapiens, UniProt P21917)
T1 sequence (P21917 whole entry): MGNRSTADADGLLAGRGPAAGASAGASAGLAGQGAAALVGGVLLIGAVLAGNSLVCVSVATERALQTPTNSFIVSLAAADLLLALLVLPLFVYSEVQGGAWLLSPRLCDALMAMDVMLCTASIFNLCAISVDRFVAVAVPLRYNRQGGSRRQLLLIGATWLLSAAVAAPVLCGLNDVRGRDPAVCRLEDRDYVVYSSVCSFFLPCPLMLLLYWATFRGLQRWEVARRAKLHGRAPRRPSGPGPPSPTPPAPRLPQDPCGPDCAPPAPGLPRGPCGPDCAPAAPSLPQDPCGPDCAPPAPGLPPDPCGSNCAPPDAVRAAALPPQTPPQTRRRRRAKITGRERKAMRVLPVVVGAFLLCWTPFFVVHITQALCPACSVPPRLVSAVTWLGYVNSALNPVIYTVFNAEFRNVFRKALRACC

[1] = biological target: Neurotensin receptor type 1 (Homo sapiens, UniProt P30989)
[2] = biological target: T2, Alpha-1A adrenergic receptor (Homo sapiens, UniProt P35348)
T2 sequence (P35348 whole entry): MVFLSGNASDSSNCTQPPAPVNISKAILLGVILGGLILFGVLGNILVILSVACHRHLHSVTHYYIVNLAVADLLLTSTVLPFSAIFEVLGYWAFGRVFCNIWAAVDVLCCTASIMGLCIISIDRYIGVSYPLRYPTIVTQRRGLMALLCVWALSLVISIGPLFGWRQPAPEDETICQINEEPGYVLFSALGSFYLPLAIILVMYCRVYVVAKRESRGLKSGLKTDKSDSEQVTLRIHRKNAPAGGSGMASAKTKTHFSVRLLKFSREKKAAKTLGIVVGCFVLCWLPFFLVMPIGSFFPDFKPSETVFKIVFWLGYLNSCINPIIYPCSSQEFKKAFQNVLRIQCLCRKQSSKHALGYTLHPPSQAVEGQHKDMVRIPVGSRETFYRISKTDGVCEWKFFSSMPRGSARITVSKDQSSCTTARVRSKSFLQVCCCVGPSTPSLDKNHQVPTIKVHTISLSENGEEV

[3] = biological target: Voltage-dependent N-type calcium channel subunit alpha-1B (Rattus norvegicus, UniProt Q02294); format: functional
[4] = biological target: 5-hydroxytryptamine receptor 2A (Homo sapiens, UniProt P28223)
Histamine H1 receptor [5] = biological target: T3, Histamine H1 receptor (Homo sapiens, UniProt P35367); format: functional, cell-based
Histamine H1 receptor [6] = biological target: T3, Histamine H1 receptor; format: functional, cell-based; remark: listed apart in the source
[7] = biological target: Sodium channel protein type 5 subunit alpha (Homo sapiens, UniProt Q14524); format: functional, cell-based
Also: assay procedure not described here.

Chain of Neurotensin receptor type 1 (P30989 whole entry): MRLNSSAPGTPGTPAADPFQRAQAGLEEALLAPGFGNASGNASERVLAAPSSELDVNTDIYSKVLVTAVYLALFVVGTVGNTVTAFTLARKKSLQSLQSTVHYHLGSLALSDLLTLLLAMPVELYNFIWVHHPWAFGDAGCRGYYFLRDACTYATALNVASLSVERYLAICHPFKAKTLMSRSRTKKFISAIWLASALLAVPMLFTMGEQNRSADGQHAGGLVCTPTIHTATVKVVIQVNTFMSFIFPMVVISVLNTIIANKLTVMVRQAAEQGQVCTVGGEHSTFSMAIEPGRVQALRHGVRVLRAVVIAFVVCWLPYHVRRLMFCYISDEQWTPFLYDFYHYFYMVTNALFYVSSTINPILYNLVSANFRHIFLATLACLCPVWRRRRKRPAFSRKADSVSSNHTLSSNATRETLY
Chain of Substance-P receptor (P25103 whole entry): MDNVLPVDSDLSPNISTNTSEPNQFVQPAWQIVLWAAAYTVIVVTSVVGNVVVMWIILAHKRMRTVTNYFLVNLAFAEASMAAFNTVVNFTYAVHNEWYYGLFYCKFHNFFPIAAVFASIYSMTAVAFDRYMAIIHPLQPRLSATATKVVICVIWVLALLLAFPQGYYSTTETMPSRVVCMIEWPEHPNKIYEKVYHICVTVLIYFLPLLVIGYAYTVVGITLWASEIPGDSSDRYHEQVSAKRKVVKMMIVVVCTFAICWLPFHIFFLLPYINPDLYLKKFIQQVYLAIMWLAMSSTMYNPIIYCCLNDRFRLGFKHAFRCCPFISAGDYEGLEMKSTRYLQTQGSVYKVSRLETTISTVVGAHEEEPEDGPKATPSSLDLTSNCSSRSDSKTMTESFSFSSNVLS
Chain of Voltage-dependent N-type calcium channel subunit alpha-1B (Q02294 whole entry): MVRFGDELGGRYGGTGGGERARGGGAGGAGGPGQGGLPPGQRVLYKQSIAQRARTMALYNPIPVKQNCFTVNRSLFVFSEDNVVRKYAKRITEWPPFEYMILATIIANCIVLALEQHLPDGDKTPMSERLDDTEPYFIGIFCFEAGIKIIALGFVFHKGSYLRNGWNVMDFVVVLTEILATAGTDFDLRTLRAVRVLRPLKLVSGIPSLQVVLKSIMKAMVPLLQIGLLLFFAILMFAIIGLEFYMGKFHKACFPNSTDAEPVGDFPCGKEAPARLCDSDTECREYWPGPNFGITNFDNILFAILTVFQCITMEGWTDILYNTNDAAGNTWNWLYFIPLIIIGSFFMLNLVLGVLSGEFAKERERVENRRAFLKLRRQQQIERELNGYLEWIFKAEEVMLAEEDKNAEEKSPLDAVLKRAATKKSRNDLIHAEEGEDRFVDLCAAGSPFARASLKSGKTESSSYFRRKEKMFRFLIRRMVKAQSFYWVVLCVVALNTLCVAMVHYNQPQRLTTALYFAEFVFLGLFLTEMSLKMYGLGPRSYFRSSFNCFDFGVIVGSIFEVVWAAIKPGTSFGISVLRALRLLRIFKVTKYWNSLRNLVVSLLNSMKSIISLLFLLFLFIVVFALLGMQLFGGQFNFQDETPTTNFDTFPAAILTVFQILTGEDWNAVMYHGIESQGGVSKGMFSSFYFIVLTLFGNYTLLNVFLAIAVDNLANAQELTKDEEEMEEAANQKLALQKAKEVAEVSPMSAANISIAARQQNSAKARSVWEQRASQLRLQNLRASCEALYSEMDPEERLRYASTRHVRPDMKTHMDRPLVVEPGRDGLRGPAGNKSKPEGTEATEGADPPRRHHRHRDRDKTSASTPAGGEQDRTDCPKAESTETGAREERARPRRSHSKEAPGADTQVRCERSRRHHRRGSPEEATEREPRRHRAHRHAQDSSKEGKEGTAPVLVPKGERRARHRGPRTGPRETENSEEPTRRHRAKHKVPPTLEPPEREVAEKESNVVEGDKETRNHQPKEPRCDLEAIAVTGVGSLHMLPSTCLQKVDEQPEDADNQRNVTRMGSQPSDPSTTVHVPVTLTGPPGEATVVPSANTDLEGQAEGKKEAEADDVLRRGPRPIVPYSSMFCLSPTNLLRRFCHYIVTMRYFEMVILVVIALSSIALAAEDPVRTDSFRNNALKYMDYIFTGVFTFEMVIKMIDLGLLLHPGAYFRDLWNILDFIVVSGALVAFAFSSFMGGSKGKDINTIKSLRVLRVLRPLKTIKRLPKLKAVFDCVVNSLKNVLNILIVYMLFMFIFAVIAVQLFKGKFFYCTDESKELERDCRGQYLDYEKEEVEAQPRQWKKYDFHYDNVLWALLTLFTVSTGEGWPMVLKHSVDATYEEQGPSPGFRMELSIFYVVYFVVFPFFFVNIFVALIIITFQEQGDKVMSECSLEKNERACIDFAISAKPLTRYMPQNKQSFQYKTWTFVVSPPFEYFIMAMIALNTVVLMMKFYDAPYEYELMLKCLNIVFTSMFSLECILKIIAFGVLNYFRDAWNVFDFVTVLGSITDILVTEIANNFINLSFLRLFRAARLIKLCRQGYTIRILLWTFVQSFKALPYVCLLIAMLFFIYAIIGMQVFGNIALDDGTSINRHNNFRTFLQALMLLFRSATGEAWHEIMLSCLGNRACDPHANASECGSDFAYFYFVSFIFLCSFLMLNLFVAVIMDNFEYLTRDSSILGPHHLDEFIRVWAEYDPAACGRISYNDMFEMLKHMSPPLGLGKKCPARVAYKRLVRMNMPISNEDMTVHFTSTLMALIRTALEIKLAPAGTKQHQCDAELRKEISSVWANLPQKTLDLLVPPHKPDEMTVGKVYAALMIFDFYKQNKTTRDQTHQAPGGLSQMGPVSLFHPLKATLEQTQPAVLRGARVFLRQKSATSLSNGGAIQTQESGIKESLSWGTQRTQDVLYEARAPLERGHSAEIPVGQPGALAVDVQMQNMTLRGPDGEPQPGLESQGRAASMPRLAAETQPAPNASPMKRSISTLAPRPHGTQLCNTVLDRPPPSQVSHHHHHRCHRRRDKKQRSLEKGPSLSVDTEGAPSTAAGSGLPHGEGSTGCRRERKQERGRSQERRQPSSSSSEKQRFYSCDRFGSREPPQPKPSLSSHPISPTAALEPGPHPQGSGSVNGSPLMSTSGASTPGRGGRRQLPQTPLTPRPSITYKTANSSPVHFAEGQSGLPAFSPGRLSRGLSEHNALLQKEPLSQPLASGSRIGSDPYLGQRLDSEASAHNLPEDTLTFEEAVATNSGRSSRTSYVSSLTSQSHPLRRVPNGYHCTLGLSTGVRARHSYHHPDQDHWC
Chain of 5-hydroxytryptamine receptor 2A (P28223 whole entry): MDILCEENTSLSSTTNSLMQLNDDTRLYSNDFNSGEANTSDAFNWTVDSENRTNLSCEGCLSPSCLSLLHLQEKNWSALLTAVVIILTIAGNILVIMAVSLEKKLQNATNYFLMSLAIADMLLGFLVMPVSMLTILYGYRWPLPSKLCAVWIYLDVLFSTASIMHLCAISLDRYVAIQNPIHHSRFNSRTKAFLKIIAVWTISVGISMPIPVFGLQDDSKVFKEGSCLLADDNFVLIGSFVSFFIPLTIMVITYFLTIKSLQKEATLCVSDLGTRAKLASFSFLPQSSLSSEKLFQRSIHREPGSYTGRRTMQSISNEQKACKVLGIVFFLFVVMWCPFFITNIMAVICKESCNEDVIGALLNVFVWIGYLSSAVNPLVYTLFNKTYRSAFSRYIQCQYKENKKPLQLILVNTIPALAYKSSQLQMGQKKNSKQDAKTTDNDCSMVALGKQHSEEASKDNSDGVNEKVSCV
T3 sequence (P35367 whole entry): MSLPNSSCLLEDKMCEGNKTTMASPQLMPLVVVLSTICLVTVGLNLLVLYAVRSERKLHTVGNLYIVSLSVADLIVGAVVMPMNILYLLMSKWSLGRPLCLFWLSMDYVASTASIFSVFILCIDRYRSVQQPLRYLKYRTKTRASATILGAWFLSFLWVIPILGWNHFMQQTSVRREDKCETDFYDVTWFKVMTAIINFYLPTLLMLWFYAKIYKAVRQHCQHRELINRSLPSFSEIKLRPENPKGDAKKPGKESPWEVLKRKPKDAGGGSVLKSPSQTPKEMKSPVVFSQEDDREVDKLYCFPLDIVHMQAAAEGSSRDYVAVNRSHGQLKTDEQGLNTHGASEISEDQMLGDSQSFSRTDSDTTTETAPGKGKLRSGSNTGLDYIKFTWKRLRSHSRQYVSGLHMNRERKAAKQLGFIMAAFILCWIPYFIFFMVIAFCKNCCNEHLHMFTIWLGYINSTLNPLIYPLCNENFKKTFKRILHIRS

SMILES | AC50 (Substance-P receptor) [µM] | AC50 (D(4) dopamine receptor) [µM] | AC50 [1] [µM] | AC50 [2] [µM] | AC50 [3] [µM] | AC50 [4] [µM] | AC50 (Histamine H1 receptor [5]) [µM] | AC50 (Histamine H1 receptor [6]) [µM] | AC50 [7] [µM]
O=C(O[C@H]1C[N+]2(CCCOc3ccccc3)CCC1CC2)C(O)(c1cccs1)c1cccs1 [ACLIDINIUM BROMIDE] | 0.497 | > 10 | > 30 | 5.1 | > 10 | > 10 |  |  | 
Cc1ccc(-c2ncc(Cl)cc2-c2ccc(S(C)(=O)=O)cc2)cn1 [ETORICOXIB] | > 10 | > 10 | > 30 | > 10 | > 10 | > 10 | > 30 | > 30 | 
CN1C(=O)CN=C(c2ccccc2F)c2cc([N+](=O)[O-])ccc21 [FLUNITRAZEPAM] | > 10 | > 10 | > 30 | > 10 | > 10 | > 10 |  |  | 
COc1ccc2c3c1O[C@H]1C(=O)CC[C@H]4[C@@H](C2)N(C)CC[C@]314 [HYDROCODONE] | > 10 | > 10 | > 30 | > 10 | > 10 | > 10 |  |  | > 50
